These results are taken from patent publication US20140205537A1, “LRRK2 INHIBITORS” (ZENOBIA THERAPEUTICS, INC., priority 2011, published 2014).

One may read the inhibition as the drop in the measured response relative to a control, in per cent. By pIC50 is commonly meant the IC50 on a negative log10 scale, so that one unit is a factor of ten.

SMILES strings stand for the structures. pIC50: −log10 of the molar value. Some results are limits rather than exact numbers.

One experiment has as its target ALK4 (Homo sapiens, UniProt P36896). Put plainly: Kinase selectivity panel: ALK4. The class given is biochemical.
The target of another experiment is T1, AURKA (Homo sapiens, UniProt O14965).
T1 sequence (O14965 1-403): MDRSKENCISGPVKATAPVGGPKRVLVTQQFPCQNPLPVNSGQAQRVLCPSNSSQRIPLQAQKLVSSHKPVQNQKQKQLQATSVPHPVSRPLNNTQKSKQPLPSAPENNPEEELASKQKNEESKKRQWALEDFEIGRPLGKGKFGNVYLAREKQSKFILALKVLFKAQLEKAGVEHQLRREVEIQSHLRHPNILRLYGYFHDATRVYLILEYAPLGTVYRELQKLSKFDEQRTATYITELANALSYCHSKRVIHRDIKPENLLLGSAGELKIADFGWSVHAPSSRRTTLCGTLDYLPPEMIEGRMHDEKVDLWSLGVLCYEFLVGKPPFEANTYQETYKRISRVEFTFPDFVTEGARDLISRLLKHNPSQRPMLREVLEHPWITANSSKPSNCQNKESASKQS
The experiment in a line: Kinase selectivity panel: AURKA. The class given is biochemical.

The next experiment deals with BTK (Homo sapiens, UniProt Q06187). Put plainly: Kinase selectivity panel: BTK. It is filed as biochemical.
The next experiment concerns the target CAMK2D (Homo sapiens, UniProt Q13557). The experiment in a line: Kinase selectivity panel: CAMK2D. The class given is biochemical.
In a further experiment the target is FLT3 (Homo sapiens, UniProt P36888). Put plainly: Kinase selectivity panel: FLT3. It is filed as biochemical.
For a further experiment, the target named is mTOR (Homo sapiens, UniProt P42345). The experiment in a line: Kinase selectivity panel: mTOR. The class given is biochemical.
Another experiment deals with JAK3 (Homo sapiens, UniProt P52333). Put plainly: Kinase selectivity panel: JAK3. The class given is biochemical.
The next experiment has as its target KDR (Homo sapiens, UniProt P35968). Put plainly: Kinase selectivity panel: KDR. The class given is biochemical.
In another experiment the target is MARK2 (Homo sapiens, UniProt Q7KZI7). Put plainly: Kinase selectivity panel: MARK2. The class given is biochemical.
A further experiment has as its target MLK1 (Homo sapiens, UniProt P80192). The experiment in a line: Kinase selectivity panel: MLK1. The class given is biochemical.
The next experiment has as its target HGK (Homo sapiens, UniProt O95819). The experiment in a line: Kinase selectivity panel: HGK. The class given is biochemical.
The next experiment has as its target ERK2 (Homo sapiens, UniProt P28482). Put plainly: Kinase selectivity panel: ERK2. The class given is biochemical.
The target of a further experiment is P38 alpha (Homo sapiens, UniProt Q16539). Put plainly: Kinase selectivity panel: P38 alpha. It is filed as biochemical.
For a further experiment, the target named is NEK1 (Homo sapiens, UniProt Q96PY6). The experiment in a line: Kinase selectivity panel: NEK1. The class given is biochemical.
The next experiment deals with TRKA (Homo sapiens, UniProt P04629). Put plainly: Kinase selectivity panel: TRKA. The class given is biochemical.
For a further experiment, the target named is PDGFRbeta (Homo sapiens, UniProt P09619). The experiment in a line: Kinase selectivity panel: PDGFRbeta. It is filed as biochemical.
In a further experiment the target is PHKG2 (Homo sapiens, UniProt P15735). The experiment in a line: Kinase selectivity panel: PHKG2. The class given is biochemical.
In a further experiment the target is PKC beta1 (Homo sapiens, UniProt P05771). Put plainly: Kinase selectivity panel: PKC beta1. The class given is biochemical.
A further experiment addresses RSK2 (Homo sapiens, UniProt P51812). Put plainly: Kinase selectivity panel: RSK2. It is filed as biochemical.
The next experiment addresses G2019S LRRK2 (Homo sapiens, UniProt Q5S007, G2019S). Put plainly: G2019S LRRK2 inhibition (Invitrogen SelectScreen / TR-FRET biochemical assay). Further details: The protein construct used in the assay is GST tagged 969-2527; GST; purchased Invitrogen. The conditions noted are these: numeric value. The procedure: IC50s were determined using Invitrogen's SelectScreen® Profiling Service for wild type and LRRK2 G2019S. The test compounds were screened in 1% DMSO (final) in the well.
a) % inhibition is measured at one concentration
b) a 10-point titration is run to ensure the kinase is inhibited within an expected IC50 range
Biochemical Assay Protocol:
Compound potency against wild-type and G2019S LRRK2 is measured via TR-FRET. The IC50, the amount of inhibitor required to inhibitor 50% of the protein under the given assay conditions, is determined by varying the amount of compound (500-0.001 uM) by serial dilution with 12-data points per compound, in duplicate. The substrate (Fluorescein-GAGRLGRDKYKTLRQIRQ) and ATP is fixed at 0.8 uM and 57 uM (KmATP), respectively. All assays are run in Corning low volume […] round bottomed plates. The assay is run in 50 mM Tris-HCl pH8.5, 10 mM MgCl2, 0.01% Brij-35, 1 mM EGTA, 2 mMDTT. The TR-FRET assay is an end-point assay where the reaction with protein, substrate, inhibitor and ATP is incubated for 1 hour at room temperature. The compound is pre-incubated with the protein and substrate prior to initiating the reaction with ATP. Phospho-transfer is detected using a Terbium labeled anti-pLRRKtide that binds to phosphorylated substrate creating FRET transfer when excited at 340 nm. Emissions signals are taken for terbium and FRET induced fluorescein at 495 nm and 520 nm, respectively, using a Biotek Synergy 2 spectrophotometer. The dose response is determined by plotting the emission ratio of 520/495 against the log of the inhibitor concentration. The maximum inhibition and non-inhibition controls is run on all plates. Staurosporine is used as the positive inhibition control and DMSO is used as the negative point control. A 12-point dose curve of Staurosporine is run as a dosing control. The IC50 is determined to be the inhibitor concentration at which 50% inhibition is achieved. The protein construct used in the assay is GST tagged 969-2527. The protein is commercially available from Invitrogen.
Alternatively, compounds of formulas (II), (I), (I-A), (I-B), (I-C), (I-D), (I-D-1), (I-D-2), (I-E), (I-F), (I-G), (I-H), (I-I), (I-I-1), (I-I-2), (I-J), (I-K), (I-L), (I-M), (I-N), (I-Z-1), (I-Z-2), (I-Z-2-a), (I-Z-2-b), (I-Z-2-c), (I-Z-2-d), (I-Z-3-a), (I-Z-3-b), (I-Z-3-c), or (I-Z-3-d) were tested using Invitrogen's SelectScreen® Profiling Service for LRRK2 G2019S.
(In TR-FRET formats the signal depends on donor and acceptor labels being close together.)

Chain of CAMK2D (Q13557 whole entry, species assumed): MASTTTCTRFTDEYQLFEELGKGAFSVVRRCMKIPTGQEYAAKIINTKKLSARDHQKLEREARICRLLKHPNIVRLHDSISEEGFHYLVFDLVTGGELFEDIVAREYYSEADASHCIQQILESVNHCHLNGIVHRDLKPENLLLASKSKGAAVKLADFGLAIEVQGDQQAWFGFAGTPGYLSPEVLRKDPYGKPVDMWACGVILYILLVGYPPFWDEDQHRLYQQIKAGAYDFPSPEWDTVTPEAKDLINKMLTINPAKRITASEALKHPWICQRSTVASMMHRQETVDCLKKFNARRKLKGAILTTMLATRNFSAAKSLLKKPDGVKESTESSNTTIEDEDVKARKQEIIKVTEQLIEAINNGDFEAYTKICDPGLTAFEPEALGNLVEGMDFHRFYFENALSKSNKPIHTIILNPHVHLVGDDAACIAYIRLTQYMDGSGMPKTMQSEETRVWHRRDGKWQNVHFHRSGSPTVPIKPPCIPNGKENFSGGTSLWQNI
Chain of MARK2 (Q7KZI7 whole entry, species assumed): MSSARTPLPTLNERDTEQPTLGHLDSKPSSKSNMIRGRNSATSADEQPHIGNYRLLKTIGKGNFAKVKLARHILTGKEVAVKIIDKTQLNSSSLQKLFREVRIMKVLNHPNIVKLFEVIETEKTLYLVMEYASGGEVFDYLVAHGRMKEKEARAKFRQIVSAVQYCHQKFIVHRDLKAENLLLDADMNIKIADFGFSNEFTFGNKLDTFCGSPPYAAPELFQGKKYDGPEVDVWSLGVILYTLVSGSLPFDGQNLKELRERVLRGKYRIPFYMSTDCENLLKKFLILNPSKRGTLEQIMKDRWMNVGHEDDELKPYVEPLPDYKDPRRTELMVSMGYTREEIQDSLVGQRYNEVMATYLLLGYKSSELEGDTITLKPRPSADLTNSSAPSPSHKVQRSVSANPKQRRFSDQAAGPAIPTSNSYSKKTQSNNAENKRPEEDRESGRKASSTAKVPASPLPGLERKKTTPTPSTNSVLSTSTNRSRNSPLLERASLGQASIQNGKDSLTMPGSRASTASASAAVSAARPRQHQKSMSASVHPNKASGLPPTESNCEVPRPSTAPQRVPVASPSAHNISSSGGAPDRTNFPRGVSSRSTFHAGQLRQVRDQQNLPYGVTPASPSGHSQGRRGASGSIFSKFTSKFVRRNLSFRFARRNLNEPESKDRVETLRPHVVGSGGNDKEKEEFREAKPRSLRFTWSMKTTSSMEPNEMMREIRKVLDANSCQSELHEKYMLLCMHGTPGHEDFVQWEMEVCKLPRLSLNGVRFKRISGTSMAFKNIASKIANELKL
Chain of MLK1 (P80192 whole entry, species assumed): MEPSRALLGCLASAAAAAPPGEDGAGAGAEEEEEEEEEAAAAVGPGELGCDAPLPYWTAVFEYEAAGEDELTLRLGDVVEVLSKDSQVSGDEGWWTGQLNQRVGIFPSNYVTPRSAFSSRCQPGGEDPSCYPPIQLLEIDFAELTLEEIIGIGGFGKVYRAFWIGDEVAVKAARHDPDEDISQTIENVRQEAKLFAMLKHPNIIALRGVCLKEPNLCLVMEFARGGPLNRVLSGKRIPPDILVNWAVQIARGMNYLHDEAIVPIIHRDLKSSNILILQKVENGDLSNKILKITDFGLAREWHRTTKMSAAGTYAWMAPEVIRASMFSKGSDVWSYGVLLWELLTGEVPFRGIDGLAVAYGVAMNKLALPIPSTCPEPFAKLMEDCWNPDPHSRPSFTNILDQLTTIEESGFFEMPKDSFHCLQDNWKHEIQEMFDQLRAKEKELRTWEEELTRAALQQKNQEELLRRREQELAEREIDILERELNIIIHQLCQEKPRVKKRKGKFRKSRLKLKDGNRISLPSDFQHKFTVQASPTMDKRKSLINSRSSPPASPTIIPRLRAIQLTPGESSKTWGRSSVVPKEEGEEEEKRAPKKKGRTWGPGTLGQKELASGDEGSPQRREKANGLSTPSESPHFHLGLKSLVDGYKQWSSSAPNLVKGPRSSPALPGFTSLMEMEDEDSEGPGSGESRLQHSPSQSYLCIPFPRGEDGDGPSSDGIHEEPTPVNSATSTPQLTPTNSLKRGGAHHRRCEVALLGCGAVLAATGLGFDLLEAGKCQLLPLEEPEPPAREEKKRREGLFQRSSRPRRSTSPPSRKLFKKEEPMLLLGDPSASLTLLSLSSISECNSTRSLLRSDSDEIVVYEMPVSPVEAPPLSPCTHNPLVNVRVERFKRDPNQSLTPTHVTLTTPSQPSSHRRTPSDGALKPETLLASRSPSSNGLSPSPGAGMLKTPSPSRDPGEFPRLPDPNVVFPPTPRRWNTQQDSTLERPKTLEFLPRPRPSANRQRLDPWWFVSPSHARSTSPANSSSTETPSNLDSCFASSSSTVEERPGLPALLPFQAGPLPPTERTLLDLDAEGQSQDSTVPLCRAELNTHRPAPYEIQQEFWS
Chain of P38 alpha (Q16539 whole entry): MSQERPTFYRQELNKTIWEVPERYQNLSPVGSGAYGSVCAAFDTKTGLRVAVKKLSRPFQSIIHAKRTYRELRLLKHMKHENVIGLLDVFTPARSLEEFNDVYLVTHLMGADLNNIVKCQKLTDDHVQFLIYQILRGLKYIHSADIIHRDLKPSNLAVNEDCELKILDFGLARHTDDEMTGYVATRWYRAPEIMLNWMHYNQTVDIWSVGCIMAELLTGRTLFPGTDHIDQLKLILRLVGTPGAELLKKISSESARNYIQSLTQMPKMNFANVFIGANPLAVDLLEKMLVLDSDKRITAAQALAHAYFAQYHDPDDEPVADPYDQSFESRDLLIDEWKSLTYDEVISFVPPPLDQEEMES
Chain of RSK2 (P51812 whole entry, species assumed): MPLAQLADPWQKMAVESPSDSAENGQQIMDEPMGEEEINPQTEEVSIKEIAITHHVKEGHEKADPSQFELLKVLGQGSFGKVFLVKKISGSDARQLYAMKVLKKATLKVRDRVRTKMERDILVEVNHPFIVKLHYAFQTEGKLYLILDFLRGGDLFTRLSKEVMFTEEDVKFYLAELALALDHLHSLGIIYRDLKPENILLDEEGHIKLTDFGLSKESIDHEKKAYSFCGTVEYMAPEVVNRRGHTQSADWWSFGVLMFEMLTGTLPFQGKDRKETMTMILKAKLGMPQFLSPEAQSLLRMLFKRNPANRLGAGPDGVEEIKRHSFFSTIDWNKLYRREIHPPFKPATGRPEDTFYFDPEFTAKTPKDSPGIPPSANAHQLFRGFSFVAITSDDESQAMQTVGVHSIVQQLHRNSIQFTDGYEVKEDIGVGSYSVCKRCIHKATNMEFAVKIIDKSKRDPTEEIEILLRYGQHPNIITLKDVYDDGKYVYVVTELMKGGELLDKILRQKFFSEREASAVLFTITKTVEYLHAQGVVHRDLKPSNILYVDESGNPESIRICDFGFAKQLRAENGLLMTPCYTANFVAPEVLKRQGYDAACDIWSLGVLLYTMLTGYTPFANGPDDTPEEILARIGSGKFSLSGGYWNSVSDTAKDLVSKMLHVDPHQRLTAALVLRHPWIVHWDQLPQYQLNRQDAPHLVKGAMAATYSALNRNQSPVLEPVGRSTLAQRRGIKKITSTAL
Chain of ALK4 (P36896 24-505, species assumed): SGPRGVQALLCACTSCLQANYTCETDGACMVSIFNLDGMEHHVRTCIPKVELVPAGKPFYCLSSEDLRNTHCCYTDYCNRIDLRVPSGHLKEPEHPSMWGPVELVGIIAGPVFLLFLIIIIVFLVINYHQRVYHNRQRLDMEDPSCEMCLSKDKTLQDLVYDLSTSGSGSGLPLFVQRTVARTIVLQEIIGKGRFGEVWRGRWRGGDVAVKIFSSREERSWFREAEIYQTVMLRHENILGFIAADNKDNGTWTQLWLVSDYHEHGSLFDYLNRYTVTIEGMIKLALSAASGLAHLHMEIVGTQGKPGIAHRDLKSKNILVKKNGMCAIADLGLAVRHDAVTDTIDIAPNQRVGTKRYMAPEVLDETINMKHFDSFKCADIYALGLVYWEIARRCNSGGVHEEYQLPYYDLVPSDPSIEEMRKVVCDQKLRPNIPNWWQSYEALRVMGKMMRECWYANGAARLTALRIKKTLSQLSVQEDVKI
Chain of BTK (Q06187 whole entry, species assumed): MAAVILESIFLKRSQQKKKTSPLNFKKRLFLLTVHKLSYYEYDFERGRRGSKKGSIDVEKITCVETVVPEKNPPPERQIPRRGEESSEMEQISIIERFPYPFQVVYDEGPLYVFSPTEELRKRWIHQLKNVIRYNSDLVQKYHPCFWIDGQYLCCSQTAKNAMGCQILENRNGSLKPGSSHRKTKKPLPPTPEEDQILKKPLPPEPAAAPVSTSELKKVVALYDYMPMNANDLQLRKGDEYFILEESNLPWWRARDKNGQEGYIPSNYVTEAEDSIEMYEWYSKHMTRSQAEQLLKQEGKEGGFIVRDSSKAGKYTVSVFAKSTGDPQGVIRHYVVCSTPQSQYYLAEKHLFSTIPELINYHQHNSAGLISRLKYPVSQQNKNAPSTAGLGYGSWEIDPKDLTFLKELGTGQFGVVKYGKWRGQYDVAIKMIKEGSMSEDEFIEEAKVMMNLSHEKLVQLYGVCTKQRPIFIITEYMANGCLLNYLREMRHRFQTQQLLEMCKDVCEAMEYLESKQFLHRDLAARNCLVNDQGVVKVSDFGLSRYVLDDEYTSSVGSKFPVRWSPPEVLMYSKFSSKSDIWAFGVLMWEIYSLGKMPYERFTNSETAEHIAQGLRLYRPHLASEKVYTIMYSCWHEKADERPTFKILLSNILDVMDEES
Chain of ERK2 (P28482 whole entry, species assumed): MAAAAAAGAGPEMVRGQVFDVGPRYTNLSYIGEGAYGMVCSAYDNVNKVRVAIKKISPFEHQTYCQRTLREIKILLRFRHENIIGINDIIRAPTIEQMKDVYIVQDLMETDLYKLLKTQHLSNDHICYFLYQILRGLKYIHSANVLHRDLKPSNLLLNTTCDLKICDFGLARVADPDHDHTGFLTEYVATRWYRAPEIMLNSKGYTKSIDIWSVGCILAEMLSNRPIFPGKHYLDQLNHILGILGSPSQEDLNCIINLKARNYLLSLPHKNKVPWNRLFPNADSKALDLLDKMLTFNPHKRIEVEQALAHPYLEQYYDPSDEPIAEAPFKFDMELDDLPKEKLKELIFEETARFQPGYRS

Consider `COc1ccc2c(c1)/C(=C/c1cnc(C3CCOCC3)[nH]1)C(=O)N2` [Compound 18, (3Z)-5-methoxy-3-[(2-tetrahydropyran-4-yl-1H-imidazol-5-yl)methylene]indolin-2-one], for which the inhibition at 0.1 µM was -3% against ALK4; -1% against AURKA (@0.1 uM); 4% against BTK; 41% on CAMK2D (@0.1 uM); 8% at FLT3; 12% on mTOR. Also, the inhibition at 0.1 µM on JAK3 is 2%; at KDR it was 1%; against MARK2 (@0.1 uM), 5%; on MLK1, -17%; against HGK, -18%; on ERK2, 8%. For the same compound, the inhibition at 0.1 µM was 12% against P38 alpha; 10% at NEK1; 11% against TRKA; 4% at PDGFRbeta; 3% against PHKG2; 4% against PKC beta1. In addition, the inhibition at 0.1 µM against RSK2 amounted to 3%. In addition, the pIC50 against AURKA is under 5.00; at CAMK2D, 6.56; against MARK2 it was 5.10; at G2019S LRRK2, 8.26.
